Assay results reported in patent US20060019954A1, “Method for reducing the likelihood of the occurrence of cardiac arrhythmias” (Cedars-Sinai Medical Center, priority 2004, published 2006).

Test system: SCD canine subjects (myocardial infarction, complete AV block, NGF to left stellate ganglion)
Experiment: Effect of BRL 37344 infusion in the canine sudden cardiac death (SCD) model
Format: in vivo
From the text: The canine SCD model is created by inducing myocardial hyperinnervation within the left stellate ganglion in combination with creating a complete atrioventricular (AV) block and inducing a relatively mild myocardial infarction (MI). The AV block is typically created by ablating the AV node of the heart using an ablation catheter and the MI is induced by ligating the left anterior descending portion of the coronary artery. Myocardial hyperinnervation is stimulated by application of nerve growth factor (NGF) or other neurtrophic vectors to the left stellate ganglion. Alternatively, electrical stimulation signals may be applied to the left stellate ganglion.
Four canine groups were evaluated in this study. MI was created in each of the canine subjects by ligating the left anterior descending coronary artery. Complete AV block was created by radiofrequency ablation of the atrioventricular junction in the MI, SCD and RSG Groups. An ICD was used to monitor for the occurrence of ventricular arrhythmias. Nerve growth factor (NGF) was infused by an osmotic pump throughout a 4-5 week period in the left stellate ganglion (LSG) of the canine subjects in the SCD Group and in the right stellate ganglion (RSG) of the canine subjects in the RSG Group. The canine subjects in the SCD Group was characterized by a high incidence of SCD (44%), long QTc intervals and frequent episodes of ventricular tachycardia, whereas the RSG Group had no SCD, short QTc intervals and few episodes of VT.
Two canine groups were studied and compared to ascertain the effect of a β3 adrenergic receptor agonist (BRL 37344) on the incidence of phase-2 VT, typically leading to sudden cardiac death. Table 4 compares the incidence of phase-2 VT, QTc intervals and the size of myocardial infarction (“MI”) of SCD canine subjects and SCD canine subjects receiving BRL 37344 infusion.
β3 adrenergic receptor agonist BRL 37344 was infused subcutaneously by an osmotic pump (2 μg/kg/hr) for two weeks in two canine subjects with myocardial infarction, complete atrioventricular block and nerve growth factor to the left stellate ganglion (BRL Group). Surface ECG was continuously recorded by Data Sciences International (DSI) and analyzed manually.

With `C[C@H](Cc1ccc(OCC(=O)O)cc1)NC[C@H](O)c1cccc(Cl)c1` [BRL 37344] the “Effect on incidence of ventricular arrhythmias” value (2 μg/kg/hr by osmotic pump for a two week period, mammalian SCD models) was “effective in significantly reducing the incidence of ventricular arrhythmias”, the “Incidence of Phase-2 VT” value (SCD canine subjects, BRL 37344 2 μg/kg/hr subcutaneous by osmotic pump for two weeks, n=2, SCD Group without infusion 2.0 ± 2.0 per day) was 0.08±0.11 per day and the “QTc Interval” value (SCD canine subjects, BRL 37344 2 μg/kg/hr subcutaneous infusion, throughout follow-up, SCD Group without infusion 400 ms) was 350 ms. The “Size of MI” value (SCD canine subjects, BRL 37344 2 μg/kg/hr subcutaneous infusion, SCD Group without infusion 17 ± 4%) was 16±1.2%, the “Phase-2 VT episodes, first canine subject of the BRL Group” value (short runs of VT episodes observed from day 36 to day 44 after surgery) was “no phase-2 VT for five weeks” and the “Occurrence of sudden cardiac death during follow-up” value (two canine subjects of the BRL Group, followed up for two months) was “without SCD”. The “Phase-2 VT episodes, second canine subject of the BRL Group” value (two months follow-up) was “no phase-2 VT episodes”.
